Source: patent US20230092890A1, “1, 3, 4-Oxadiazole derivative compounds as histone deacetylase 6 inhibitor, and the pharmaceutical composition comprising the same” (Chong Kun Dang Pharmaceutical Corp., priority 2019, published 2023)

Legend:
HDAC6 human recombinant = target: T1, HDAC6 human recombinant (Homo sapiens, UniProt Q9UBN7); experiment: HDAC enzyme activity inhibition (in vitro), HDAC6 assay; type: biochemical; conditions: samples at 0.1, 1, 10, 100 and 1000 nM; 37° C. 60 minutes; fluorescence Ex 390, Em 460; read-out: HDAC6 IC50
T1 construct: purchased Calbiochem 382180
T1 sequence (Q9UBN7 1-1215): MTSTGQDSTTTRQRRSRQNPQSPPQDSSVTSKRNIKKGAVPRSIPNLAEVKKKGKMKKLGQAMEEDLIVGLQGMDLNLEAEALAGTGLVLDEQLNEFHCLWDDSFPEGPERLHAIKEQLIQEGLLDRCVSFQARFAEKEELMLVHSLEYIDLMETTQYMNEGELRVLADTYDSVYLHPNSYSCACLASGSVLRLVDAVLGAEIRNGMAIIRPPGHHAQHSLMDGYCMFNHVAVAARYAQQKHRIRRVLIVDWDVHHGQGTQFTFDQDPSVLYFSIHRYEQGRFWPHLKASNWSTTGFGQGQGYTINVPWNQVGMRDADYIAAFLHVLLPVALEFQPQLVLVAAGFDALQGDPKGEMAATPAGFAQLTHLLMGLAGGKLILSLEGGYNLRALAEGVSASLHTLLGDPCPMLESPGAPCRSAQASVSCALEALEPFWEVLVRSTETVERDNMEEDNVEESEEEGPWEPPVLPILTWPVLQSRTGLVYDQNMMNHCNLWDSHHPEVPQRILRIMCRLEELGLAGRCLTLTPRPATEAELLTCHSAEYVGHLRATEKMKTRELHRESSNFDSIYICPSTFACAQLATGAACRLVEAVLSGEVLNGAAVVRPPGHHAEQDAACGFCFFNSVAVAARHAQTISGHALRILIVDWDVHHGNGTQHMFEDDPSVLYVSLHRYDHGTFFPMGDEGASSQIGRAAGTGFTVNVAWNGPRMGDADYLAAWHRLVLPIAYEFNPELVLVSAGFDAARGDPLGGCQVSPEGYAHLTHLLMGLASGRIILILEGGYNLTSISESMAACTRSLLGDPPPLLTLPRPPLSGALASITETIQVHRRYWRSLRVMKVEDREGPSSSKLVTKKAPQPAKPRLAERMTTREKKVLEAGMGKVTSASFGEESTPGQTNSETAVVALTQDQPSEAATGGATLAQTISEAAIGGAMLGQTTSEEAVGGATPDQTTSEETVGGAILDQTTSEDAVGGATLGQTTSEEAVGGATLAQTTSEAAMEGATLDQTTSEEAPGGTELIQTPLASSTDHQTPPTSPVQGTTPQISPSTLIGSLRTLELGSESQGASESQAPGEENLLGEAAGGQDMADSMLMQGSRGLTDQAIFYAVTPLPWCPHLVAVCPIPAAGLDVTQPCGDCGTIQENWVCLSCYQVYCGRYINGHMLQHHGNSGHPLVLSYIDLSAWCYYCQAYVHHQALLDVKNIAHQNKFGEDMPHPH
How it was run: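 HDAC6 human recombinant enzyme with fluorimetric substrate; […]. Reaction 60 min at 37° C, then developer 30 min at 37° C; fluorescence read at Ex 390/Em 460.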

HDAC1 = target: T2, HDAC1 (Homo sapiens, UniProt Q13547); experiment: HDAC enzyme activity inhibition (in vitro), HDAC1 Fluorimetric Drug Discovery Assay Kit; type: biochemical; conditions: samples at 100, 1000 and 10000 nM; 37° C. 60 minutes; fluorescence Ex 390, Em 460; read-out: HDAC1 IC50
T2 construct: purchased Enzolifesciences BML-AK511
T2 sequence (Q13547 whole entry): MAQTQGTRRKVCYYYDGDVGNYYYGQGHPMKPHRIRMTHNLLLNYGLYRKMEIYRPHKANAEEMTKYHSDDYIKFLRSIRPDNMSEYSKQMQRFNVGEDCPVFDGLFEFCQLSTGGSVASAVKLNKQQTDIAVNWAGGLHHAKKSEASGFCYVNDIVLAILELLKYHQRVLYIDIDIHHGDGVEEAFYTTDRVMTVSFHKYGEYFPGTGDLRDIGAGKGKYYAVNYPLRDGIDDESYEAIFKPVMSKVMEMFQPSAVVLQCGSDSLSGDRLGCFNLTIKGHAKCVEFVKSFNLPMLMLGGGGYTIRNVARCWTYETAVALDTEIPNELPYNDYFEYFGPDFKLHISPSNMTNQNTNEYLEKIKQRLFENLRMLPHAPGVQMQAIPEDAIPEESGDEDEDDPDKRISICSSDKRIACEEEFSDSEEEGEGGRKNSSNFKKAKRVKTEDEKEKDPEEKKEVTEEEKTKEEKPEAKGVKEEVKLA
How it was run: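 Compound incubated with enzyme 60 min at 37° C, then developer 30 min at 37° C; fluorescence read at Ex 390/Em 460. HDAC1 via fluorimetric kit, compounds at 100, 1000 and 10000 nM; HDAC6 human recombinant, compounds at 0.1, 1, 10, 100 and 1000 nM.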

## CN1CC[C@H](n2c(=O)n(Cc3ccc(-c4nnc(C(F)F)o4)cn3)c3cc(F)c(-c4cccnc4)cc32)C1 [Compound 268, (S)-1-((5-(5-(difluoromethyl)-1,3,4-oxadiazole-2-yl)pyridine-2-yl)methyl)-6-fluoro-3-(1-methylpyrrolidine-3-yl)-5-(pyridine-3-yl)-1,3-dihydro-2H-benzo[d]imidazole-2-one]
HDAC6 human recombinant
  IC50: 0.02 µM
HDAC1
  IC50: > 10 µM

## O=c1n(CCN2CCOCC2)c2cc(-c3cccc4[nH]ccc34)c(F)cc2n1Cc1ccc(-c2nnc(C(F)F)o2)cn1 [Compound 269, 1-((5-(5-(difluoromethyl)-1,3,4-oxadiazole-2-yl)pyridine-2-yl)methyl)-6-fluoro-5-(1H-indole-4-yl)-3-(2-morpholinoethyl)-1,3-dihydro-2H-benzo[d]imidazole-2-one]
HDAC6 human recombinant
  IC50: 0.006 µM
HDAC1
  IC50: > 10 µM

## CN1CC[C@H](n2c(=O)n(Cc3ccc(-c4nnc(C(F)F)o4)cn3)c3cc(F)c(-c4cccc5[nH]ccc45)cc32)C1 [Compound 270, (S)-1-((5-(5-(difluoromethyl)-1,3,4-oxadiazole-2-yl)pyridine-2-yl)methyl)-6-fluoro-5-(1H-indole-4-yl)-3-(1-methylpyrrolidine-3-yl)-1,3-dihydro-2H-benzo[d]imidazole-2-one]
HDAC6 human recombinant
  IC50: 0.019 µM
HDAC1
  IC50: > 10 µM

## O=c1n(Cc2ccc(-c3nnc(C(F)F)o3)cn2)c2cc(Cl)ccc2n1C1CCN(C2COC2)CC1 [Compound 271, 5-chloro-3-((5-(5-(difluoromethyl)-1,3,4-oxadiazole-2-yl)pyridine-2-yl)methyl)-1-(1-(oxetan-3-yl)piperidine-4-yl)-1,3-dihydro-2H-benzo[d]imidazole-2-one]
HDAC6 human recombinant
  IC50: 0.027 µM
HDAC1
  IC50: > 10 µM

## CN1CC[C@@H](n2c(=O)n(Cc3ccc(-c4nnc(C(F)F)o4)cn3)c3cc(F)c(-c4ccncc4)cc32)C1 [Compound 272, (R)-1-((5-(5-(difluoromethyl)-1,3,4-oxadiazole-2-yl)pyridine-2-yl)methyl)-6-fluoro-3-(1-methylpyrrolidine-3-yl)-5-(pyridine-4-yl)-1,3-dihydro-2H-benzo[d]imidazole-2-one]
HDAC6 human recombinant
  IC50: 0.029 µM
HDAC1
  IC50: > 10 µM

## CN1CC[C@@H](n2c(=O)n(Cc3ccc(-c4nnc(C(F)F)o4)cn3)c3cc(F)c(-c4cccc5[nH]ccc45)cc32)C1 [Compound 273, (R)-1-((5-(5-(difluoromethyl)-1,3,4-oxadiazole-2-yl)pyridine-2-yl)methyl)-6-fluoro-5-(1H-indole-4-yl)-3-(1-methylpyrrolidine-3-yl)-1,3-dihydro-2H-benzo[d]imidazole-2-one]
HDAC6 human recombinant
  IC50: 0.014 µM
HDAC1
  IC50: > 10 µM

## CN1CCC[C@@H](n2c(=O)n(Cc3ccc(-c4nnc(C(F)F)o4)cn3)c3cc(F)c(-c4cccnc4)cc32)C1 [Compound 274, (R)-1-((5-(5-(difluoromethyl)-1,3,4-oxadiazole-2-yl)pyridine-2-yl)methyl)-6-fluoro-3-(1-methylpiperidine-3-yl)-5-(pyridine-3-yl)-1,3-dihydro-2H-benzo[d]imidazole-2-one]
HDAC6 human recombinant
  IC50: 0.012 µM
HDAC1
  IC50: > 10 µM

## CN1CCC[C@@H](n2c(=O)n(Cc3ccc(-c4nnc(C(F)F)o4)cn3)c3cc(F)c(-c4ccncc4)cc32)C1 [Compound 275, (R)-1-((5-(5-(difluoromethyl)-1,3,4-oxadiazole-2-yl)pyridine-2-yl)methyl)-6-fluoro-3-(1-methylpiperidine-3-yl)-5-(pyridine-4-yl)-1,3-dihydro-2H-benzo[d]imidazole-2-one]
HDAC6 human recombinant
  IC50: 0.016 µM
HDAC1
  IC50: > 10 µM

## CN1CCC[C@@H](n2c(=O)n(Cc3ccc(-c4nnc(C(F)F)o4)cn3)c3cc(F)c(-c4cccc5[nH]ccc45)cc32)C1 [Compound 276, (R)-1-((5-(5-(difluoromethyl)-1,3,4-oxadiazole-2-yl)pyridine-2-yl)methyl)-6-fluoro-5-(1H-indole-4-yl)-3-(1-methylpiperidine-3-yl)-1,3-dihydro-2H-benzo[d]imidazole-2-one]
HDAC6 human recombinant
  IC50: 0.015 µM
HDAC1
  IC50: > 10 µM

## O=c1oc2cc(-c3cccnc3)c(F)cc2n1Cc1ccc(-c2nnc(C(F)F)o2)cn1 [Compound 277, 3-((5-(5-(difluoromethyl)-1,3,4-oxadiazole-2-yl)pyridine-2-yl)methyl)-5-fluoro-6-(pyridine-3-yl)benzo[d]oxazole-2(3H)-one]
HDAC6 human recombinant
  IC50: 0.021 µM
HDAC1
  IC50: > 10 µM

## O=c1oc2cc(-c3ccncc3)c(F)cc2n1Cc1ccc(-c2nnc(C(F)F)o2)cn1 [Compound 278, 3-((5-(5-(difluoromethyl)-1,3,4-oxadiazole-2-yl)pyridine-2-yl)methyl)-5-fluoro-6-(pyridine-4-yl)benzo[d]oxazole-2(3H)-one]
HDAC6 human recombinant
  IC50: 0.017 µM
HDAC1
  IC50: > 10 µM

## O=c1oc2cc(-c3cccc4[nH]ccc34)c(F)cc2n1Cc1ccc(-c2nnc(C(F)F)o2)cn1 [Compound 279, 3-((5-(5-(difluoromethyl)-1,3,4-oxadiazole-2-yl)pyridine-2-yl)methyl)-5-fluoro-6-(1H-indole-4-yl)benzo[d]oxazole-2(3H)-one]
HDAC6 human recombinant
  IC50: 0.015 µM
HDAC1
  IC50: > 10 µM

## O=c1n(Cc2ccc(-c3nnc(C(F)F)o3)cn2)c2ccc(-c3cccnc3)cc2n1C1CCN(C2COC2)CC1 [Compound 280, 1-((5-(5-(difluoromethyl)-1,3,4-oxadiazole-2-yl)pyridine-2-yl)methyl)-3-(1-(oxetan-3-yl)piperidine-4-yl)-5-(pyridine-3-yl)-1,3-dihydro-2H-benzo[d]imidazole-2-one]
HDAC6 human recombinant
  IC50: 0.018 µM
HDAC1
  IC50: > 10 µM

## CCN1CCC(n2c(=O)n(Cc3ccc(-c4nnc(C(F)F)o4)cn3)c3ccc(-c4cccnc4)cc32)CC1 [Compound 281, 1-((5-(5-(difluoromethyl)-1,3,4-oxadiazole-2-yl)pyridine-2-yl)methyl)-3-(1-ethylpiperidine-4-yl)-5-(pyridine-3-yl)-1,3-dihydro-2H-benzo[d]imidazole-2-one]
HDAC6 human recombinant
  IC50: 0.018 µM
HDAC1
  IC50: > 10 µM

## O=c1n(Cc2ccc(-c3nnc(C(F)F)o3)cn2)c2ccc(-c3ccncc3)cc2n1C1CCN(C2COC2)CC1 [Compound 282, 1-((5-(5-(difluoromethyl)-1,3,4-oxadiazole-2-yl)pyridine-2-yl)methyl)-3-(1-(oxetan-3-yl)piperidine-4-yl)-5-(pyridine-4-yl)-1,3-dihydro-2H-benzo[d]imidazole-2-one]
HDAC6 human recombinant
  IC50: 0.016 µM
HDAC1
  IC50: > 10 µM

## CCN1CCC(n2c(=O)n(Cc3ccc(-c4nnc(C(F)F)o4)cn3)c3ccc(-c4ccncc4)cc32)CC1 [Compound 283, 1-((5-(5-(difluoromethyl)-1,3,4-oxadiazole-2-yl)pyridine-2-yl)methyl)-3-(1-ethylpiperidine-4-yl)-5-(pyridine-4-yl)-1,3-dihydro-2H-benzo[d]imidazole-2-one]
HDAC6 human recombinant
  IC50: 0.023 µM
HDAC1
  IC50: > 10 µM

## Cn1c(=O)n(Cc2ccc(-c3nnc(C(F)F)o3)cn2)c2cc(F)c(N3CCN(Cc4cccc5[nH]ccc45)CC3)cc21 [Compound 284, 5-(4-((1H-indole-4-yl)methyl)piperazine-1-yl)-1-((5-(5-(difluoromethyl)-1,3,4-oxadiazole-2-yl)pyridine-2-yl)methyl)-6-fluoro-3-methyl-1,3-dihydro-2H-benzo[d]imidazole-2-one]
HDAC6 human recombinant
  IC50: 0.059 µM
HDAC1
  IC50: > 10 µM

## Cn1c(=O)n(Cc2ccc(-c3nnc(C(F)F)o3)cn2)c2cc(F)c(N3CCN(Cc4cn[nH]c4)CC3)cc21 [Compound 285, 5-(4-((1H-pyrazole-4-yl)methyl)piperazine-1-yl)-1-((5-(5-(difluoromethyl)-1,3,4-oxadiazole-2-yl)pyridine-2-yl)methyl)-6-fluoro-3-methyl-1,3-dihydro-2H-benzo[d]imidazole-2-one]
HDAC6 human recombinant
  IC50: 0.033 µM
HDAC1
  IC50: > 10 µM
